Data reported in patent US20030236439A1, “Non-steroidal analogs of 2-methoxyestradiol” (priority 2002, published 2003).

How the values were obtained:
[1] = test system: chick embryo chorioallantoic membrane; test: chick embryo chorioallantoic membrane (CAM) assay; assay type: in vivo; details: 100 μg methylcellulose disk, after 48 hours
Description: Anti-proliferative activity can be evaluated in situ by testing the ability of the new non-steroidal estradiol analogs to inhibit the proliferation of new blood vessel cells (angiogenesis). A suitable assay is the chick embryo chorioallantoic membrane (CAM) assay described by Crum et al. Science 230:1375 (1985). See also, U.S. Pat. No. 5,001,116, hereby incorporated by reference, which describes the CAM assay. Briefly, fertilized chick embryos are removed from their shell on day 3 or 4, and a methylcellulose disc containing the drug is implanted on the chorioallantoic membrane. The embryos are examined 48 hours later and, if a clear avascular zone appears around the methylcellulose disc, the diameter of that zone is measured.

MCF-7 cell = details: in vitro, over a wide range of concentrations; cited from earlier work
[2] = test system: vascular endothelial cell proliferation; details: vascular endothelial vs tumor cell proliferation; cited from earlier work

Row | SMILES | effect on cell mitosis and growth of new blood vessels (avascular zone) [1] | estrogenic activity (MCF-7 cell) | half-maximal inhibition of endothelial cell proliferation at lower concentration than tumor cell proliferation [2] [logs]
1 | COc1cc2c(cc1O)CC[C@@H]1[C@@H]2CC[C@]2(C)[C@@H](O)CC[C@@H]12 [2-methoxyestradiol] | inhibit cell mitosis and the growth of new blood vessels | not estrogenic | 
2 | CO[C@@H]1[C@H](OC(=O)NC(=O)CCl)CC[C@]2(CO2)[C@H]1[C@@]1(C)O[C@@H]1CC=C(C)C [AGM-1470] |  |  | 4
